Test results taken from a melting point compilation (Tetko et al.; mined from patent text by program, amines drawn as free bases though some values may be those of a salt).

SMILES	melting point [°C]
OCc1cn(Cc2ccccc2)nc1OCc1ccccc1	79 to 80
O=C1CCC2(CCCc3ccccc32)CC1	109 to 111
O=c1c2ccccc2ncn1CCN1CCC(Nc2nc3ccccc3n2Cc2ccc(F)cc2)CC1	191
Cc1nnc(-c2ccc3occ(-c4ccc5sccc5c4)c3c2)o1	159 to 160
N#Cc1nn(-c2c(Cl)cc(C(F)(F)F)cc2Cl)c(N2CCCCC2)c1S(=O)(=O)C(F)(F)F	153 to 155
Nc1[nH]c(=O)c(C(=O)NCC2CCN(CC3CCCCC3)CC2)cc1Cl	142 to 146
CCCCNC(=O)C(c1ccccc1)c1ccccc1	96
CCCC[C@H](NC(=O)[C@H](CCC(=O)OC(C)(C)C)NC(=O)OCc1ccccc1)C(=O)CSCc1ccco1	78 to 79
COC(=O)C1C(=O)CC(=O)CC1C (stereo unspecified)	122 to 123
CCCCCCCCCCCCCCCCOC(=O)c1cc(C(=O)OCCCCCCCCCCCCCCCC)cc(S(=O)(=O)Cl)c1	48 to 50
COc1cc(C)nc2c(OCc3c(Cl)ccc(N)c3Cl)cccc12	> 250
COc1ccc(CCOc2ccnc(Cl)c2)cc1OC	116 to 117
O=C(O)C=Cc1cccc(CCc2nc(-c3ccccc3)c(-c3ccccc3)o2)c1	114 to 115
CCCCCCCCCCCCCCN(C)c1ccc(N)cc1C(=O)O	79
COCc1ccc(Oc2cc(OC3CCOCC3)c3[nH]c(C4=NCC(CC(C)(C)O)S4)cc3c2)cn1 (stereo unspecified)	108 to 110
N#Cc1cccc(OCc2cccc(OCc3ccc4ccccc4n3)c2)c1	86 to 87
O=C1c2c(O)cccc2C(C(=O)C2CCCCC2)c2cccc(O)c21	220
Cc1oc(-c2ccccc2)nc1COc1ccccc1CCl	103 to 104
O=C(O)CCC(=O)CCC(=O)Nc1ccc(Cc2ccc(NC(=O)CCC(=O)CCC(=O)O)cc2)cc1	158 to 160

SMILES	melting point [°C]
CCCCOc1cc(CNCCN(CC)CC)cc(S(N)(=O)=O)c1Cc1ccccc1	89 to 93
O=C(O)c1cc(N=Cc2ccccc2)ccc1O	213 to 215
COc1ccc(NC(=N)N2CCCCC2)c(-c2ccccc2)c1	155
CC(=O)c1cccc2ccc(CS(=O)(=O)N3CCOCC3)cc12	162
O=C1c2c(Cl)cccc2-n2cnc(-c3noc(CN4CCCCC4)n3)c2[C@@H]2CCN12	177 to 179
CCOCCOc1ccc(C(=O)CN(Cc2ccccc2)Cc2ccccc2)cc1C(N)=O	128 to 131
COCCn1nc2c3c(c(NCCNCCO)ccc31)C(=O)c1c(O)ccc(O)c1-2	174 to 178
COc1ccc(C(=O)Nc2cc(C(=O)NCc3ccccc3)ccn2)cc1	165 to 166
COP(=O)(CN[C@@H](Cc1ccc(-c2ccccc2)cc1)C(=O)NCCC(=O)O)OC	122 to 123
N#Cc1cnc2cc(Br)ccc2c1Nc1ccc(Cl)cc1Cl	180 to 183
CCOC(=O)C(=O)Nc1ncccn1	96 to 99
COc1c(CCC(=O)O)cccc1Oc1ccccc1C	71 to 75
O=C(Nc1c(F)cc(F)cc1F)N(Cc1ccc2c(c1)Cc1ccccc1-2)C1CCCCC1	162 to 165
CC1(C)CC(c2ccc3ccccc3n2)c2cc(C#N)ccc2O1 (stereo unspecified)	174 to 176
COc1cc(OC)cc(N2CCN(C(=O)N(C)c3cc(C(C)OC)c(C)nc3OC)CC2)c1 (stereo unspecified)	117 to 119
CC(C)(C)OC(=O)N1CCC[C@@H](OC(=O)c2ccc(OC(C)(C)C)cc2)[C@H](NC(=O)c2ccc(OC(C)(C)C)cc2)C1	126 to 128
COC(=O)[C@@H](Cc1ccc(-c2ncnc3c2ncn3[C@@H]2CCCCO2)cc1)NC(=O)OC(C)(C)C	144 to 147
CC(C)(C)c1ccc(C(O)CCCCC2CCCCC2)cc1C(C(N)=O)C1c2ccccc2Oc2ccccc21 (stereo unspecified)	121 to 122
C=CC(=O)NC(C)(C)COc1ccc(Cl)cc1	95 to 96

SMILES	melting point [°C]
CCCCCCC(NC(=O)OCc1ccccc1)P(=O)(O)CC(=O)OC (stereo unspecified)	260 to 268
CCCCCN(CCC12CC3CC(CC(C3)C1)C2)C(=O)NCCc1ccccn1	80 to 100
Nc1cnn(CCO)c1N	158 to 160
CC1CCCC(C)N1Cc1ccc2cc(NC(=O)C3(Cl)C=CC(c4ccccc4Cl)=CC3)ccc2n1 (stereo unspecified)	162 to 164
COc1cc2nc(-c3cccs3)cc(C(=O)O)c2cc1OC	260 to 263
CC(C)=C(C(=O)O)c1cc(C(C)C)c(O)c2c(Cc3ccccc3)cccc12	264 to 266
CCCCCCCCNP(N)(N)=O	102 to 114
OC(COc1cccnc1)c1cccc(OCc2ccc3ccccc3n2)c1 (stereo unspecified)	103 to 104
CC(=O)NN=C(C)c1ccc(C)nc1	178
Cn1ncc2c1CCC(=CO)C2=O	93 to 95
CCOC(=O)c1[nH]c(COC)nc1C(C)(C)O	112 to 113
CCCCCc1c(-c2ccc3cc(OCc4nnn[nH]4)ccc3c2)n(Cc2ccccc2)c2ccccc12	109 to 112
Nc1nc2ncnc(NCc3ccco3)c2[nH]1	128 to 130
O=CN(O)C(CO)CS(=O)(=O)c1ccc(Oc2ccc(OC(F)(F)F)cc2)cc1 (stereo unspecified)	115 to 117
CCCSc1nc(-c2ccc(C#N)cc2)cn1-c1ccc(C#N)cc1	117 to 122
COC(=O)N1CCC(=O)C(C2(NO)OCCO2)C1 (stereo unspecified)	162 to 165
Nc1cc(C(=O)c2cccc(C(=O)c3ccc(F)c(N)c3)c2)ccc1F	170 to 171
O=C(O)COc1ccc2c(-c3ccc(Cl)cc3)noc2c1	207

The next lines start with the values.

melting point [°C]	SMILES
202 to 204	Cc1[nH]cnc1CSCCNc1ncc(Cc2ccn(C)c(=O)c2)c(=O)[nH]1
158 to 159	O=C(O)CN1C(=O)C(c2ccccc2)SC1=S (stereo unspecified)
245 to 246	CCC1=C(C)CN(C(=O)NC2COc3cc(OC)c(S(=O)(=O)NC(=O)NC)cc3C2)C1=O (stereo unspecified)
151 to 153	Cc1ccc2c(c1)c(-c1ccc(F)cc1)c(C)n2C1=CCN(CCN2CCNC2=O)CC1
302 to 304	N#Cc1cc2c3ccccc3[nH]c(=O)n2n1
82 to 83	Cc1nn(-c2c(Cl)cc(C(F)(F)F)cc2Cl)c(C)c1C=O
84.8 to 85.4	CCCCCCc1nc2c(N)nc3ccccc3c2n1CCCCNS(=O)(=O)c1ccccc1
149 to 150	COc1cc(C=CC2=CC(=O)C(C)(C)O2)cc(OC)c1OC
237 to 238	CCCc1c(OCc2cc(Br)c(C(=O)O)cc2OC)ccc(C(C)=O)c1O
214 to 216	O=c1ccc(-c2ccccc2Cl)n[nH]1
215 to 216	CCNC(=O)N1CCC(c2[nH]nc3c2C(=O)c2c(NC(=O)NN4CCOCC4)cccc2-3)CC1
65 to 67	Cc1ccc2c(c1)C(=O)C(=O)N2CCN(C(C)C)C(C)C
248 to 249	Cc1ccccc1-c1cc(C#N)c(SSc2[nH]c(-c3ccccc3C)cc2C#N)[nH]1
198 to 200	C[N+]1([O-])CC(CO)(c2ccccn2)C(=O)c2ccccc21 (stereo unspecified)
162	CC(=O)c1cc([N+](=O)[O-])ccc1NC(=O)CCl
185 to 187	CC(=O)N1C(=O)NC2(C1=O)C(=O)N(Cc1ccc(Cl)c(Cl)c1)c1ccccc12 (stereo unspecified)
137 to 139	CNC(C)CN1CCc2c(c(=O)oc3cc(OC)c(OC)cc23)C1 (stereo unspecified)
183 to 184	Cn1cc(C(=O)C(Cl)Cl)c(=O)c(-c2cccc(F)c2)c1
195 to 198	Cc1ccc([N+](=O)[O-])c(C=C2C(=O)NC(=O)N2C)c1C
186 to 188	COc1cc(NC(C)=O)c([N+](=O)[O-])cc1C(=O)O
288 to 290	CCOC(=O)c1cc2n(C)c3ccc(F)cc3c(=O)n2n1
219 to 220	CCOc1ccc(-c2nc(C)c(C(=O)O)s2)cc1Cl
112 to 115	CC(Br)C(=O)OCN1C(=O)NC(c2ccccc2)(c2ccccc2)C1=O (stereo unspecified)

melting point [°C]	SMILES
163 to 166	Cc1cc(C)cc(-c2cc(C)cn2-c2ccc(S(N)(=O)=O)cc2)c1
116 to 117	Cc1cc(C)c(C(C)(CO)c2ccc(C(C)C)cc2)c(O)c1C (stereo unspecified)
174	Cc1cccc2c1-n1nnnc1SC2
138 to 140	CCOC(=O)C(=O)c1cc(C)c(C(=O)c2ccccc2[N+](=O)[O-])n1C
97 to 98	Cc1c(C(=O)c2cccc(C(F)(F)F)c2)oc2c(Br)cccc12
77 to 78	CCNc1nc(-c2ccc(F)c3ccccc23)cc(C(C)C)n1
114	Cc1nc(Nc2ccc(F)cc2)nc(Cl)c1C
104 to 108	Cn1nnc2sccc2c1=O
178 to 179	O=C1c2ccccc2C(=O)N1CCSCc1nccc(NC(=S)NCC(F)(F)F)n1
139 to 141	COc1cc(C(C)C)c2c(c1)S(=O)(=O)N(COC(=O)c1cccs1)C2=O
168 to 169	CCSc1cc(C)nc(SCC)c1NC(=O)CSc1nc2cccc(C(=O)OC)c2o1
98 to 100	Cc1cc(O)cc(Cl)c1Cl
193	CCOC(=O)c1cc2cccc(N(C)C(=O)c3cccs3)c2[nH]1
294 to 297	CC(C)NC1=NS(=O)(=O)c2ccc(C(F)(F)F)cc2N1
142 to 144	CCOC(=O)c1cccc(NC(=O)C(CO)NS(=O)(=O)c2ccc(Cl)cc2)c1 (racemic)
113	CCC1CC(=O)N(Cc2cccc(NS(C)(=O)=O)c2)N=C1c1ccc(OC)c(OC2CCCC2)c1 (stereo unspecified)
152 to 155	COc1ccc(N2CCN(c3c(C)c(C)c4c(c3C)CC(C)(C)O4)CC2)cc1
240 to 242	N#CSc1nc(Nc2ccc(Cl)cc2)ncc1[N+](=O)[O-]
259 to 260	Cc1nc2c3c(c(C(=O)N4CC(F)C4)cc2n1C)CCC1(Cc2ccccc2C1)N3
163	CC(C)n1ncnc1COc1nn2c(-c3cc(F)ccc3F)nncc2c1C(C)(C)C
210 to 211	O=C1N(Cc2ccc(C(F)(F)F)o2)c2c(Cl)cccc2C12COc1cc3c(cc12)CCO3 (stereo unspecified)
150	COc1c(C2CCN(CCCCNC(=O)c3c(C)nc(-c4ccc(Cl)cc4)n3C)CC2)ccc2c1CCCC2
